Experimental findings from patent US9150526B2, “Biaryl-propionic acid derivatives and their use as pharmaceuticals” (SANOFI, priority 2013, dated 2015) are described below.

This assay concerns Recombinant human cathepsin A. Kind of assay: Cathepsin A inhibitory activity (Bodipy FL-bradykinin substrate, microfluidic capillary electrophoresis). Format: biochemical. The settings on record: read-out: CATH A IC50. As to the method:
Pharmacological Tests a) Cathepsin a Inhibitory Activity
Recombinant human cathepsin A (residues 29-480, with a C-terminal 10-His tag; R&D Systems, #1049-SE) was proteolytically activated with recombinant human cathepsin L (R&D Systems, #952-CY). Briefly, cathepsin A was incubated at 10 μg/ml with cathepsin L at 1 μg/ml in activation buffer (25 mM 2-(morpholin-4-yl)-ethanesulfonic acid (MES), pH 6.0, containing 5 mM dithiothreitol (DTT)) for 15 min at 37° C.
The activated cathepsin A was diluted in assay buffer (25 mM MES, pH 5.5, containing 5 mM DTT) and mixed with the test compound (dissolved in assay buffer containing (v/v) 3% DMSO) or, in the control experiments, with the vehicle in a multiple assay plate. After incubation for 15 min at room temperature, as substrate then bradykinin carrying an N-terminal ®Bodipy FL (4,4-difluoro-5,7-dimethyl-4-bora-3a,4a-diaza-s-indacene-3-propionyl) label (JPT Peptide Technologies GmbH; dissolved in assay buffer) was added to the mixture. The final concentration of cathepsin A was 833 ng/ml and the final concentration of labeled bradykinin 2 μM. After incubation for 15 min at room temperature the reaction was stopped by the addition of stop buffer (130 mM 2-(4-(2-hydroxy-ethyl)-piperazin-1-yl)-ethanesulfonic acid, pH 7.4, containing (v/v) 0.013% ®Triton X-100, 0.13% Coating Reagent 3 (Caliper Life Sciences), 6.5% DMSO and 20 μM ebelactone B (Sigma, # E0886)).
Uncleaved substrate and product were then separated by a microfluidic capillary electrophoresis on a LabChip® 3000 Drug Discovery System (12-Sipper-Chip; Caliper Life Sciences) and quantified by determination of the respective peak areas. Substrate turnover was calculated by dividing product peak area by the sum of substrate and product peak areas, and the enzyme activity and the inhibitory effect of the test compound thus quantified.

A word on the IC50: it is the point on the concentration scale where inhibition reaches its midpoint.

Take `COc1ccc(Cl)cc1-c1cccc(C(CC(=O)O)c2nccs2)c1` (stereo not shown) [compound 1]: the IC50 was found to be 160 nM. For `COc1ccc(C(C)C)cc1-c1cccc(C(CC(=O)O)c2nccs2)c1` (stereo not shown) [compound 2] the value was 132 nM. For the compound `COc1ccc(F)cc1-c1cccc(C(CC(=O)O)c2nccs2)c1` (stereo not shown) [compound 3], the IC50 was found to be 160 nM. For `COc1ccc(C(C)(C)C)cc1-c1cccc(C(CC(=O)O)c2nccs2)c1` (stereo not shown) [compound 4] the value was 119 nM.

For `COc1ccc(C(C)(C)C)cc1-c1cccc([C@H](CC(=O)O)c2nccs2)c1` [compound 5], the IC50 was 35 nM.

As for `COc1ccc(C(C)(C)C)cc1-c1cccc([C@@H](CC(=O)O)c2nccs2)c1` [compound 6], the IC50 was found to be 3380 nM. For `COc1cccc(OC)c1-c1cc(F)cc(C(CC(=O)O)c2ncc(C)s2)c1` (stereo not shown) [compound 7], the IC50 was 5 nM. With `COc1ccc(Cl)cc1-c1cc(Cl)cc(C(CC(=O)O)c2ncc(C)s2)c1` (stereo not shown) [compound 8], the IC50 amounted to 34 nM. For `COc1ccc(C(C)(C)C)cc1-c1cccc(C(CC(=O)O)c2nnc(C)o2)c1` (stereo not shown) [compound 9] the value was 61 nM; for `COc1cccc(OC)c1-c1cc(Cl)cc(C(CC(=O)O)c2ncc(C)s2)c1` (stereo not shown) [compound 10], 7 nM; for `COc1ccc(C(C)(C)C)cc1-c1cccc([C@@H](CC(=O)O)c2ncco2)c1` [compound 11], 51 nM. For `COc1ccc(C(C)(C)C)cc1-c1cccc(C(CC(=O)O)c2ncco2)c1` (stereo not shown) [compound 13], the IC50 came out at 103 nM. As for `COc1cc(C)cc(OC)c1-c1cccc(C(CC(=O)O)c2nccs2)c1` (stereo not shown) [compound 14], the IC50 is 66 nM.

`COc1cc(C)cc(OC)c1-c1cccc(C(CC(=O)O)c2ncc(C)s2)c1` (stereo not shown) [compound 15]: the IC50 was found to be 44 nM.

In the case of `COc1cc(C)cc(OC)c1-c1cccc(C(CC(=O)O)c2ncco2)c1` (stereo not shown) [compound 16], the IC50 was found to be 49 nM. For `COc1ccccc1-c1cccc(C(CC(=O)O)c2nccs2)c1` (stereo not shown) [compound 17] the value was 154 nM. For `COc1ccc(C(C)(C)C)cc1-c1cccc(C(CC(=O)O)c2nc(C)c(C)s2)c1` (stereo not shown) [compound 18] the value was 530 nM; for `COc1ccc(Cl)cc1-c1cccc(C(CC(=O)O)c2nc(C)c(C)s2)c1` (stereo not shown) [compound 19], 657 nM. The figure for `COc1cccc(OC)c1-c1cccc(C(CC(=O)O)c2nccs2)c1` (stereo not shown) [compound 20] is 30 nM; for `COc1ccc(OC)c(-c2cccc(C(CC(=O)O)c3nccs3)c2)c1` (stereo not shown) [compound 21] it is 129 nM. With `COc1ccc(C(F)(F)F)cc1-c1cccc(C(CC(=O)O)c2nccs2)c1` (stereo not shown) [compound 22], the IC50 turned out to be 134 nM.

Take `COC(=O)c1ccc(OC)c(-c2cccc(C(CC(=O)O)c3nccs3)c2)c1` (stereo not shown) [compound 23]: the IC50 was 140 nM.

As for `COc1ccc(C)cc1-c1cccc(C(CC(=O)O)c2nccs2)c1` (stereo not shown) [compound 24], the IC50 stood at 147 nM. The figure for `CCOc1ccc(C)cc1-c1cccc(C(CC(=O)O)c2nccs2)c1` (stereo not shown) [compound 25] is 147 nM; for `COc1cccc(F)c1-c1cccc(C(CC(=O)O)c2nccs2)c1` (stereo not shown) [compound 26] it is 148 nM; for `COc1ccc(F)c(F)c1-c1cccc(C(CC(=O)O)c2nccs2)c1` (stereo not shown) [compound 27] it is 156 nM. Regarding `COc1cccc(OC(C)C)c1-c1cccc(C(CC(=O)O)c2nccs2)c1` (stereo not shown) [compound 28], the IC50 was 165 nM. For the compound `COc1ccc(-c2cccc(C(CC(=O)O)c3nccs3)c2)c(OC)c1` (stereo not shown) [compound 29], the IC50 was 185 nM. The figure for `COc1cc(CO)ccc1-c1cccc(C(CC(=O)O)c2nccs2)c1` (stereo not shown) [compound 30] is 201 nM; for `COc1cccc(Cl)c1-c1cccc(C(CC(=O)O)c2nccs2)c1` (stereo not shown) [compound 31] it is 292 nM; for `COc1ccc(O)cc1-c1cccc(C(CC(=O)O)c2nccs2)c1` (stereo not shown) [compound 32] it is 307 nM. Regarding `COc1ccc(CO)cc1-c1cccc(C(CC(=O)O)c2nccs2)c1` (stereo not shown) [compound 33], the IC50 was found to be 333 nM. On to `COc1ccc(OC(F)(F)F)cc1-c1cccc(C(CC(=O)O)c2nccs2)c1` (stereo not shown) [compound 34], for which the IC50 is 389 nM. For `CC(C)Oc1ccccc1-c1cccc(C(CC(=O)O)c2nccs2)c1` (stereo not shown) [compound 35] the value was 409 nM; for `COc1c(F)cc(F)cc1-c1cccc(C(CC(=O)O)c2nccs2)c1` (stereo not shown) [compound 36], 467 nM. As for `COc1cc(F)ccc1-c1cccc(C(CC(=O)O)c2nccs2)c1` (stereo not shown) [compound 37], the IC50 was 503 nM. The figure for `COc1cc(Cl)ccc1-c1cccc(C(CC(=O)O)c2nccs2)c1` (stereo not shown) [compound 38] is 590 nM. Consider `COc1ccc(C#N)cc1-c1cccc(C(CC(=O)O)c2nccs2)c1` (stereo not shown) [compound 39], for which the IC50 came to 618 nM. `COc1c(C)cccc1-c1cccc(C(CC(=O)O)c2nccs2)c1` (stereo not shown) [compound 40]: the IC50 came out at 844 nM.

Regarding `COc1cccc(-c2cccc(C(CC(=O)O)c3nccs3)c2)c1OC` (stereo not shown) [compound 41], the concentration for half-maximal inhibition (IC50) was found to be 950 nM.

For `COc1c(F)cccc1-c1cccc(C(CC(=O)O)c2nccs2)c1` (stereo not shown) [compound 42], the IC50 worked out at 1040 nM. Turning to `O=C(O)CC(c1cccc(-c2ccccc2OC(F)(F)F)c1)c1nccs1` (stereo not shown) [compound 43], the IC50 was 1230 nM.

As to `COc1c(Cl)cccc1-c1cccc(C(CC(=O)O)c2nccs2)c1` (stereo not shown) [compound 44], the half-maximal inhibitory concentration (IC50) came to 1280 nM.

For `COc1cc(C(N)=O)ccc1-c1cccc(C(CC(=O)O)c2nccs2)c1` (stereo not shown) [compound 45], the IC50 was 1380 nM.

On to `COc1cc(OC(F)(F)F)ccc1-c1cccc(C(CC(=O)O)c2nccs2)c1` (stereo not shown) [compound 46], for which the IC50 was found to be 1530 nM.

On to `COc1cccc(C#N)c1-c1cccc(C(CC(=O)O)c2nccs2)c1` (stereo not shown) [compound 47], for which the IC50 amounted to 1750 nM.

Regarding `COc1cc(C(F)(F)F)ccc1-c1cccc(C(CC(=O)O)c2nccs2)c1` (stereo not shown) [compound 48], the IC50 amounted to 2280 nM. Turning to `COc1c(-c2cccc(C(CC(=O)O)c3nccs3)c2)cccc1C(F)(F)F` (stereo not shown) [compound 49], the IC50 is 7000 nM. The figure for `COc1ccc(Cl)cc1-c1cccc(C(CC(=O)O)c2nnc(C)o2)c1` (stereo not shown) [compound 50] is 108 nM; for `COc1cccc(OC)c1-c1cccc(C(CC(=O)O)c2ncc(C)s2)c1` (stereo not shown) [compound 51] it is 11 nM. With `COc1ccc(OC)c(-c2cccc(C(CC(=O)O)c3ncc(C)s3)c2)c1OC` (stereo not shown) [compound 52], the IC50 was 56 nM. Turning to `COc1ccc(C)cc1-c1cccc(C(CC(=O)O)c2ncc(C)s2)c1` (stereo not shown) [compound 53], the IC50 stood at 85 nM. The figure for `COc1ccc(OC)c(-c2cccc(C(CC(=O)O)c3ncc(C)s3)c2)c1` (stereo not shown) [compound 54] is 94 nM; for `COc1ccc(F)cc1-c1cccc(C(CC(=O)O)c2ncc(C)s2)c1` (stereo not shown) [compound 55] it is 96 nM. The figure for `COc1ccc(C(C)C)cc1-c1cccc(C(CC(=O)O)c2ncc(C)s2)c1` (stereo not shown) [compound 56] is 97 nM; for `COc1ccc(CO)cc1-c1cccc(C(CC(=O)O)c2ncc(C)s2)c1` (stereo not shown) [compound 57] it is 131 nM. For `COc1cccc(Cl)c1-c1cccc(C(CC(=O)O)c2ncc(C)s2)c1` (stereo not shown) [compound 58], the IC50 is 155 nM.

For `COc1cccc(F)c1-c1cccc(C(CC(=O)O)c2ncc(C)s2)c1` (stereo not shown) [compound 59], the IC50 was 171 nM. In the case of `COc1ccc(OC(F)(F)F)cc1-c1cccc(C(CC(=O)O)c2ncc(C)s2)c1` (stereo not shown) [compound 60], the IC50 is 269 nM. The figure for `COc1c(F)cc(F)cc1-c1cccc(C(CC(=O)O)c2ncc(C)s2)c1` (stereo not shown) [compound 61] is 367 nM; for `COc1ccc(Cl)cc1-c1cccc(C(CC(=O)O)c2ncc(C)s2)c1` (stereo not shown) [compound 62] it is 262 nM; for `COc1ccc(F)cc1-c1ccc(OC)c(C(CC(=O)O)c2ncc(C)s2)c1` (stereo not shown) [compound 63] it is 1170 nM. For `COc1ccc(C(C)C)cc1-c1cccc(C(CC(=O)O)c2nnc(C)o2)c1` (stereo not shown) [compound 64] the value was 49 nM.

`COc1ccc(Cl)cc1-c1ccc(OC)c(C(CC(=O)O)c2ncc(C)s2)c1` (stereo not shown) [compound 65]: the half-maximal inhibitory concentration (IC50) was found to be 3050 nM. The figure for `COc1ccccc1-c1ccc(OC)c(C(CC(=O)O)c2ncc(C)s2)c1` (stereo not shown) [compound 66] is 4410 nM; for `COc1ccc(C)cc1-c1ccc(OC)c(C(CC(=O)O)c2ncc(C)s2)c1` (stereo not shown) [compound 67] it is 9690 nM; for `COc1cccc(F)c1-c1cc(Cl)cc(C(CC(=O)O)c2ncc(C)s2)c1` (stereo not shown) [compound 71] it is 16 nM. Turning to `COc1ccc(OC)c(-c2cc(Cl)cc(C(CC(=O)O)c3ncc(C)s3)c2)c1OC` (stereo not shown) [compound 72], the IC50 came out at 18 nM. In the case of `COc1cc(C)cc(OC)c1-c1cc(Cl)cc(C(CC(=O)O)c2ncc(C)s2)c1` (stereo not shown) [compound 74], the IC50 worked out at 19 nM. The figure for `COc1ccccc1-c1cc(Cl)cc(C(CC(=O)O)c2ncc(C)s2)c1` (stereo not shown) [compound 75] is 21 nM.
